According to the NIST ThermoML archive (doi:10.1021/je060157s):
Several values for one entry are separate records, joined by “and”; a condition that tells them apart may be missing. Equal entries are not always repeated. Numbers after ± are expanded uncertainties.

Details: Liquid

Row | SMILES | vapor or sublimation pressure (293.15 K) | vapor or sublimation pressure (293.33 K) | vapor or sublimation pressure (293.34 K) | vapor or sublimation pressure (303.15 K) | vapor or sublimation pressure (303.35 K) | vapor or sublimation pressure (313.15 K) | vapor or sublimation pressure (313.37 K) | vapor or sublimation pressure (323.15 K) | vapor or sublimation pressure (323.39 K) | vapor or sublimation pressure (333.15 K) | vapor or sublimation pressure (333.39 K) | vapor or sublimation pressure (343.15 K) | vapor or sublimation pressure (343.42 K) | vapor or sublimation pressure (353.15 K) | vapor or sublimation pressure (353.43 K) | vapor or sublimation pressure (363.15 K) | vapor or sublimation pressure (363.43 K)
1 | CC(O)c1ccccc1 (stereo not given) [1-phenylethanol] | 0.006 ± 0.006 kPa | 0.009952 ± 0.0035 kPa | 0.009956 ± 0.0035 kPa | 0.016 ± 0.007 kPa | 0.02451 ± 0.0047 kPa and 0.0219 ± 0.0046 kPa | 0.041 ± 0.009 kPa | 0.06281 ± 0.0061 kPa and 0.06414 ± 0.0062 kPa | 0.095 ± 0.014 kPa | 0.1472 ± 0.013 kPa and 0.136 ± 0.013 kPa and 0.1419 ± 0.013 kPa | 0.203 ± 0.021 kPa | 0.2635 ± 0.016 kPa and 0.2649 ± 0.016 kPa | 0.404 ± 0.033 kPa | 0.515 ± 0.022 kPa and 0.5189 ± 0.022 kPa | 0.759 ± 0.055 kPa | 0.902 ± 0.032 kPa and 0.9053 ± 0.032 kPa | 1.352 ± 0.079 kPa | 1.556 ± 0.041 kPa
2 | O [water] | 2.333 ± 0.091 kPa |  |  | 4.24 ± 0.12 kPa |  | 7.376 ± 0.15 kPa |  | 12.34 ± 0.22 kPa |  | 19.92 ± 0.31 kPa |  | 31.17 ± 0.45 kPa |  | 47.38 ± 0.66 kPa |  | 70.18 ± 0.94 kPa | 
